{
  "source": "patent US20210199658A1",
  "about": "“DETECTION OF LIPASE ACTIVITY IN HONEY BEES” (The United States of America, as Represented by the …, priority 2019, published 2021)",
  "key": {"honey bees [1]": {"tested_on": "honey bees", "assay": "Time course of lipase activity (RFU) in honey bees challenged with imidacloprid", "type": "in vivo, Apis mellifera", "experimental": "Healthy honey bees were challenged in a cup-cage environment with either 5 ppb or 50 ppb of the neonicotinoid imidacloprid. The lipase activity levels were measured during a 50 minute time course, as taught herein.\nTo determine if it is possible to detect a difference between healthy bees and DWV-infected bees using the EnzChek lipase substrate and the buffers taught herein, a time course assay was performed using a set amount of EnzChek lipase substrate and a fixed amount of extracted pupae. […] In this figure, the relative fluorescence intensity (RFU) measured was plotted against time. Using linear regression, a significant difference in slopes was observable between individuals from DWV-infected hives, and individuals from healthy hives. The slope obtained for DWV-infected individuals was about 13.8 higher than the slope obtained for healthy individuals.\nHealthy seven and fourteen-day-old emerging adult honey bees were obtained from field colonies and were challenged with either 5 ppb or 50 ppb of the neonicotinoid imidacloprid. Same-aged bees were collected from unchallenged colonies acted as controls. The lipase activity levels were measured during a 30-minute time course, as in Example 3. […] Statistical significance was determined using pair-wise Kaplan Meier linear regression (P<0.01)."}, "honey bees [2]": {"tested_on": "honey bees", "assay": "Total lipid content of imidacloprid-challenged bees, vanillin assay", "type": "in vivo, Apis mellifera", "experimental": "The total lipid content on bees challenged with either 5 ppb or 50 ppb imidacloprid was measured using the vanillin assay, performed as in Example 4. The measured lipid levels (in mg/mL) were plotted, and the results are shown on FIG. 10. The total lipid content for bees treated with 5 ppb imidacloprid (P<0.01) or 50 ppb imidacloprid (P<0.05) was approximately 3-fold lower than the total lipid content measured in control bees.\nTo determine if the lipase activity measured in healthy and DWV-infected hives correlated with the measured lipid levels, the vanillin assay (Foray, V., et al., 2012, “A handbook for uncovering the complete energetic budget in insects: the van Handel's method (1985) revisited,” Physiol. Entomol. 37: 295-302) was used to measure the lipid levels in the bees. Briefly, vanillin reagent was prepared by mixing vanillin (V1104; Sigma-Aldrich, St. Louis, Mo., USA) with 68% ortho-phosphoric acid, reaching a final concentration of 1.2 g/L. For the assay, 100 μL of homogenized pupae in PBS was transferred into a borosilicate microplate well and heated at 90° C. until complete solvent evaporation. Ten microliters of 98% sulphuric acid was then added to each well, and the microplate was incubated at 90° C. for 2 minutes in a water bath. […] The plate was homogenized, incubated at room temperature for 15 minutes and its absorbance was measured spectrophotometrically at 525 nm."}},
  "data": [
    {"compound": "O=[N+]([O-])NC1=NCCN1Cc1ccc(Cl)nc1", "note": "[imidacloprid, 1-(6-chloro-3-pyridylmethyl)-N-nitroimidazolidin-2-ylideneamine]", "values": [
      {"measurement": "lipase activity levels (slope of RFU against time) compared with control bees", "setting": "honey bees [1]; bees challenged with 5 ppb imidacloprid", "result": "similar"},
      {"measurement": "lipase activity levels (RFU against time) compared with control bees", "setting": "honey bees [1]; bees challenged with 50 ppb imidacloprid, linear regression P<0.01", "result": "significantly higher"},
      {"measurement": "total lipid content, fold lower than control bees", "setting": "honey bees [2]; bees treated with 5 ppb imidacloprid, P<0.01", "result": "approximately 3 fold"},
      {"measurement": "total lipid content, fold lower than control bees", "setting": "honey bees [2]; bees treated with 50 ppb imidacloprid, P<0.05", "result": "approximately 3 fold"}
    ]}
  ]
}
